These results are taken from US11998540B2, “Compositions and methods for treating drug-tolerant glioblastoma” (THE GENERAL HOSPITAL CORPORATION, priority 2015, dated 2024).

The structures appear in SMILES notation. Entries after “also recorded” stand apart in the source; their conditions may differ.

Assay [1] deals with GSC8. Nature of the assay: Cell growth assay ([…]-GLO), GSC8 naïve. Format: cell-based, human. The conditions noted are these: for sensitivity / effect on cell growth (dose-response): 4 day treatment, GSC8 naïve. As for the experimental part: (§1) Patient-derived GSC culture lines were maintained in Neurobasal medium (Life Technologies) supplemented with N2/B27, penicillin/streptomycin (Life Technologies), GlutaMAX (Life Technologies), recombinant human EGF (20 ng/mL, R & D systems), and recombinant human FGF2 (20 ng/mL, R & D systems). For drug persister cultures, fresh compound and media were replenished every 4-6 days.
(§2) Freshly dissociated single cell suspensions were plated (96-well) in triplicate or quadruplicate at 1,000 to 10,000 cells/well for testing. For 4 day growth assays, […]-GLO® Luminescent Cell Viability Assay (Promega) was added to wells and end point luminescence was measured (BioTek Synergy HT Platereader). For 12 day assays, 1× compound in media was added at day 4 and all wells were replated with fresh media and compound at day 8 before viability was measured at day 12. For each inhibitor, n=3 replicates were used for each concentration and was repeated in two to four independent experiments.

The test system of assay [2] is GSC8^Per. Nature of the assay: Cell growth assay (CELLTITER-GLO), dasatinib persisters GSC8^Per. To be noted: for growth, 12 day treatment: GSC8^Per vs GSC8 naïve; for sensitivity / effect on cell growth (dose-response): 4 day treatment, GSC8^Per (>8 weeks dasatinib). It is filed as cell-based, human. Here is the method: as §1, §2
In assay [3] the test system is KDMs. The assay is described as follows: qRT-PCR of KDM gene expression in GSC8. It is filed as cell-based, human. To be noted: 48 hr drug treatment in GSC8. Here is the method: Whole RNA was extracted from 1-3×10^6 cells using the QIAGEN RNeasy kit according to the manufacturer's protocol. For qRT-PCR, total RNA was reverse-transcribed into cDNA (High Capacity cDNA Reverse Transcriptase Kit, Applied Biosystems) and qRT-PCR amplification was performed using fast SYBR Green Master Mix (Life Technologies) with specific PCR primers for genes of interest and 18S as an endogenous control. Relative quantification for each target was performed using the comparative Ct method (Applied Biosystems). For RNA-seq library preparation, Poly(A)^+ RNA was enriched using magnetic oligo(dT)-beads (Life Technologies) and libraries were prepared as previously described (Gifford et al., 2013). Sequences for qRT-PCR primers used are listed at Table 3.
(Real-time PCR tracks product formation cycle by cycle.)

Assay [4] relates to H3K4me3. Nature of the assay: H3K4me3 ChIP-seq in GSC8. Format: cell-based, human. To be noted: for H3K4me3 peak width / level: naïve GSCs, KDM5-C70 2.5 μM or GSKJ4 1.5 μM, 4 d. As for the experimental part: Chromatin Immunoprecipitation (ChIP) was performed as previously described (Suvà et al., 2014). Briefly, formaldehyde-fixed cells were lysed and sheared (Branson […]) on wet ice. The sheared chromatin was cleared and incubated overnight at 4° C. with the following antibodies: H3K4me3 (Millipore, 07-473, Lot 2207275), H3K27me3 (Millipore, 07-449, lot 2382150), H3K27ac (Active Motif, 39133 lot 25812006), RBPJ (Abcam, ab25949, lot GR169397-1), and cleaved Notch1 (CST, 4147, lot #4). Antibody-chromatin complexes were immunoprecipitated with protein G magnetic Dynal beads (Life Technologies), washed, eluted, reverse crosslinked, and treated with RNAse A followed by proteinase K. ChIP DNA was purified using Ampure XP beads (Beckmann Coulter) and then used to prepare sequencing libraries for sequencing with the Next-Seq Illumina genome analyzer. Reads were aligned to hg19 using BWA (Li and Durbin, 2009) and identical ChIP-seq sequence reads were collapsed to avoid PCR duplicates. In order to avoid possible saturation biases, reads were downsampled to approximately similar numbers ( 20 million reads). Peaks were called using HOMER v4.6 (Heinz et al., 2010) using matched inputs with the following parameters: H3K4me3, -histone -tagThreshold 30; H3K27ac, -histone -tagThreshold 50; H3K27me3, -histone -size 3000 -[…] 0.1; Notch1 ICD, -factor; and RBPJ, -factor. […] Quantification of the H3K27me3 ChIP-seq signals, using fore- and background normalization, was essentially performed as outlined in (Zhu et al., 2013) with few modifications. To exclude genomic regions with potential copy number aberrations, read counts derived from whole cell extracts ChIP-seq within 5 kb genomic windows were quantified. Read counts were performed using interval overlap functions of the R package Genomic Ranges (Lawrence et al., 2013). To compute normalization constants, all genomic windows with read counts equal to 0 or greater than 3 standard deviations from the mean were excluded from the analysis. For a given H3K27me3 ChIP-seq data set, the background constant was estimated as the median of the read count distribution within 5 kb windows overlapping the 5% most highly expressed genes, as active genes are considered to be devoid of repressive chromatin modifications. The foreground signal was estimated as the median of the read count distribution within 5 kb windows centered around each called peak and subtracting the background signal. To quantify H3K27me3 signal within 5 kb regions of interest, the background signal was subtracted from the corresponding read count and the resulting value divided by the foreground signal. […] In order to quantify ChIP-seq intensities within genomic regions of different sizes (e.g. genes), the obtained normalization constants were scaled accordingly. […]

Assay [5] deals with H3K27me3. Nature of the assay: H3K27me3 ChIP-seq in GSC8. Format: cell-based, human. Here is the method:
Chromatin Immunoprecipitation (ChIP) was performed as previously described (Suvà et al., 2014). Briefly, formaldehyde-fixed cells were lysed and sheared (Branson […]) on wet ice. The sheared chromatin was cleared and incubated overnight at 4° C. with the following antibodies: H3K4me3 (Millipore, 07-473, Lot 2207275), H3K27me3 (Millipore, 07-449, lot 2382150), H3K27ac (Active Motif, 39133 lot 25812006), RBPJ (Abcam, ab25949, lot GR169397-1), and cleaved Notch1 (CST, 4147, lot #4). Antibody-chromatin complexes were immunoprecipitated with protein G magnetic Dynal beads (Life Technologies), washed, eluted, reverse crosslinked, and treated with RNAse A followed by proteinase K. ChIP DNA was purified using Ampure XP beads (Beckmann Coulter) and then used to prepare sequencing libraries for sequencing with the Next-Seq Illumina genome analyzer. Reads were aligned to hg19 using BWA (Li and Durbin, 2009) and identical ChIP-seq sequence reads were collapsed to avoid PCR duplicates. In order to avoid possible saturation biases, reads were downsampled to approximately similar numbers ( 20 million reads). […] Quantification of the H3K27me3 ChIP-seq signals, using fore- and background normalization, was essentially performed as outlined in (Zhu et al., 2013) with few modifications. To exclude genomic regions with potential copy number aberrations, read counts derived from whole cell extracts ChIP-seq within 5 kb genomic windows were quantified. Read counts were performed using interval overlap functions of the R package Genomic Ranges (Lawrence et al., 2013). To compute normalization constants, all genomic windows with read counts equal to 0 or greater than 3 standard deviations from the mean were excluded from the analysis. For a given H3K27me3 ChIP-seq data set, the background constant was estimated as the median of the read count distribution within 5 kb windows overlapping the 5% most highly expressed genes, as active genes are considered to be devoid of repressive chromatin modifications. […]

Assay [6] has as its system GSC8. The assay is described as follows: Flow cytometry for Ki67 and EdU incorporation in GSC8. The conditions noted are these: 1 μM. On the technique in general: A flow cytometer gives signals particle by particle.
Assay [7] has as its system GSC8^12d. The assay is described as follows: Cell growth assay (CELLTITER-GLO), GSC8 treated 12 days with dasatinib. It is filed as cell-based, human. The conditions noted are these: 4 day treatment. As for the experimental part:
as §1, §2
(In general: Cellular ATP, detected with luciferase, serves as a proxy for viable cell number.)

Assay [8] deals with GSC8 PD0325901^Per. The assay is described as follows: Cell growth assay ([…]-GLO), MEK inhibitor persisters. Format: cell-based, human. The conditions noted are these: 4 day treatment; persisters from sustained MEK inhibition. As for the experimental part: as §1, §2

Take `C[C@H](NC(=O)Cc1cc(F)cc(F)c1)C(=O)N[C@H]1N=C(c2ccccc2)c2ccccc2N(C)C1=O` [Compound E]: the “growth, 12 day treatment” value in assay [1] (12 day treatment, naïve GSC8) was “little effect”; in assay [2], “preferentially sensitive”; in assay [2] (listed as Notch inhibitor (γ-secretase)) it was “significantly reduced”.

As to `CCOC(=O)CCNc1cc(N2CCc3ccccc3CC2)nc(-c2cccnc2)n1` [GSKJ5], the “sensitivity / effect on cell growth (dose-response)” value (“sensitivity / effect on cell growth” below) in assay [2] is on record as “no preferential sensitivity; also recorded: Negligible differential effects”.

As for `O=C(NOC[C@H](O)CO)c1ccc(F)c(F)c1Nc1ccc(I)cc1F` [PD0325901], in assay [1], the “sensitivity / effect on cell growth” value was “differentially sensitive”. Besides, in assay [3], the KDM gene expression result was “KDM induction; also recorded: up-regulation of numerous KDMs”.

As for `CC1(COc2ccc3c(c2)ncn3-c2ccc3cccc(N4CCC(N)CC4)c3n2)COC1` [crenolanib], the “sensitivity / effect on cell growth” value is recorded as “preferentially sensitive” in assay [1] and “relatively insensitive; also recorded: tolerated higher concentrations” in assay [2].

Regarding `Cc1nc(Nc2ncc(C(=O)Nc3c(C)cccc3Cl)s2)cc(N2CCN(CCO)CC2)n1` [dasatinib], in assay [1] (Homo sapiens, 96 h), the IC50 (usually the midpoint of a concentration-inhibition curve) was approximately 10 nM. In addition, in assay [2], the “sensitivity / effect on cell growth” value is listed as “relatively insensitive; also recorded: tolerated higher concentrations”. The “H3K4me3 at cell cycle-associated promoters” value in assay [4] (short-term dasatinib treatment) is “reduced”. Further, in assay [5] (GSC8^12d, GSC8^Per, GSC8 PD0325901^Per), the “H3K27me3 peaks after drug treatment” value is “strongly reduced”. Besides, the “cell cycle effect (Ki67 / EdU)” value in assay [6] (4 d) was “induced cell cycle arrest and G0 induction”. In addition, the “Ki67^+ cells” value in assay [6] (after 4 days of dasatinib, 93% in naïve) was determined as 17%.

For the molecule `CCOC(=O)CCNc1cc(N2CCc3ccccc3CC2)nc(-c2ccccn2)n1` [GSKJ4], the “sensitivity / effect on cell growth” value in assay [1] was “well tolerated”; in assay [2], “preferentially sensitive; also recorded: significantly compromised viability”; in assay [7], “preferentially sensitive; also recorded: significantly compromised viability”; in assay [8], “preferentially sensitive”. The “H3K4me3 peak width / level” value in assay [4] is reported as “did not significantly increase H3K4me3”. In addition, in assay [5] (GSC8^12d, GSKJ4 1.5 μM, 8 d, after 4 days of dasatinib), the “rescue of H3K27me3 loss associated with dasatinib treatment” value is recorded as “rescued the dramatic H3K27me3 loss”. In assay [5] (naïve GSC8, 1.5 μM, 8 d), the “effect on pre-existing H3K27me3 landscape” value was “negligible effects”.

Consider `CCOC(=O)c1ccnc(CNCC(=O)N(CC)CCN(C)C)c1` [KDM5-C70], for which the “sensitivity / effect on cell growth” value in assay [1], in assay [2] and in assay [7] was “subtle effects on proliferation” in each case. In assay [1] (4 day, GSC8 naïve simultaneously treated with KDM5-C70 2.5 μM vs vehicle), the “effect on dasatinib dose-response curve” value is “No significant effect”. Also, in assay [4], the “H3K4me3 peak width / level” value is on record as “caused H3K4me3 peaks to expand; also recorded: H3K4me3 peak width increases”. Moreover, the “rescue of H3K4me3 reduction associated with dasatinib treatment” value in assay [4] (with 4 day dasatinib) was “partially rescued; also recorded: significantly attenuated H3K4me3 reduction”.
